According to ChEMBL document CHEMBL1145414, “Candidaspongiolides, distinctive analogues of tedanolide from sponges of the genus Candidaspongia” (2007):
Converted amounts (≈) assume the structure as drawn.

Assay: Cytotoxicity against NCI60 cells
Assay type: functional
Details: Homo sapiens

| SMILES | GI50 [ng/mL] |
| --- | --- |
| C/C=C\[C@H](C)[C@H]1OC1(C)[C@@H](O)[C@H]1COC(=O)[C@H](O)[C@@H](OC)[C@H](C)C(=O)[C@H](C)[C@@H](OC(C)=O)/C(C)=C/[C@H](C)C(=O)C[C@H](O)[C@@](O)(CO)C1=O (single isomer, unassigned) | 42 (≈ 0.0613 µM) |
| C/C=C\[C@H](C)[C@H]1O[C@@]1(C)[C@@H](O)[C@H]1COC(=O)[C@H](O)[C@@H](OC)[C@H](C)C(=O)[C@H](C)[C@@H](O)/C(C)=C/[C@H](C)C(=O)CC[C@@H](C)C1=O | 0.09 (≈ 0.000151 µM) |
